Here are results for one substance from US20110027846A1, “CONTROL OF BACTERIA IN FERMENTATION PROCESSES” (priority 2007, published 2011).

The subject of one test is yeast. Briefly: yeast level on SDA medium after biocide contact (Comparative Example 3). The test is classed as cell-based. As to conditions: 2 hours after contact, biocide concentration 50 ppm. The text has this:
(§1) A comparison is done to show the effect of four different biocides on yeast level and bacteria level in various media and at various points relative to introduction of the biocide. SDA medium is synthetic defined agar, and PCA medium is plate count agar. Dow Antimicrobial™ 7287 is a composition containing 20 percent 2,2-dibromo-3-nitrilopropionamide (DBNPA), sold by The Dow Chemical Company.

Another test deals with bacteria. Briefly: bacteria level on PCA medium after biocide contact (Comparative Example 3). The test is classed as cell-based. To be noted: PCT medium, 2 hours after contact; biocide concentration 50 ppm.
Text: as §1

On to Diethyl Carbamate, for which the Yeast level in the test on yeast is reported as <1.0 × 10^4 cfu/ml. In addition, the Bacteria level with bacteria is 2.6 × 10^7 cfu/ml.
